In paper PMC10176470, “Engaging a Non-catalytic Cysteine Residue Drives Potent and Selective Inhibition of Caspase-6” (Journal of the American Chemical Society, 2023):
Where two headings read alike, the source gives them in different places.

Assays:
Assay type in all cases: cell-based
[1] = target: T1, proteins of HEK293T cells transiently overexpressing caspase-6 (Homo sapiens, UniProt P00505)
T1 sequence (P00505 30-430): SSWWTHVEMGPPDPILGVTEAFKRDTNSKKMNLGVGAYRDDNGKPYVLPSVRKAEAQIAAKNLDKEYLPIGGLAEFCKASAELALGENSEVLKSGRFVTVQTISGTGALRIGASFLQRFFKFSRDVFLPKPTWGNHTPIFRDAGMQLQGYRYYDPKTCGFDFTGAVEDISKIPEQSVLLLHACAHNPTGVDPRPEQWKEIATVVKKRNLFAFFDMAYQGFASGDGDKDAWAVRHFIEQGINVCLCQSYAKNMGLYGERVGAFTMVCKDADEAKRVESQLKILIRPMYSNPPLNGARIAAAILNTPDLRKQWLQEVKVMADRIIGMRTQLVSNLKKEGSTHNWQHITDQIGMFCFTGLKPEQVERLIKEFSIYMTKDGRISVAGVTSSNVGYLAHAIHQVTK

[2] = target: proteins of HEK293T cells transiently overexpressing caspase-6 (Homo sapiens, UniProt P11021); conditions: protein HSPA5 (P11021)
proteins of HEK293T cells transiently overexpressing caspase-6 (Homo sapiens, UniProt P11021), sequence (P11021 19-654): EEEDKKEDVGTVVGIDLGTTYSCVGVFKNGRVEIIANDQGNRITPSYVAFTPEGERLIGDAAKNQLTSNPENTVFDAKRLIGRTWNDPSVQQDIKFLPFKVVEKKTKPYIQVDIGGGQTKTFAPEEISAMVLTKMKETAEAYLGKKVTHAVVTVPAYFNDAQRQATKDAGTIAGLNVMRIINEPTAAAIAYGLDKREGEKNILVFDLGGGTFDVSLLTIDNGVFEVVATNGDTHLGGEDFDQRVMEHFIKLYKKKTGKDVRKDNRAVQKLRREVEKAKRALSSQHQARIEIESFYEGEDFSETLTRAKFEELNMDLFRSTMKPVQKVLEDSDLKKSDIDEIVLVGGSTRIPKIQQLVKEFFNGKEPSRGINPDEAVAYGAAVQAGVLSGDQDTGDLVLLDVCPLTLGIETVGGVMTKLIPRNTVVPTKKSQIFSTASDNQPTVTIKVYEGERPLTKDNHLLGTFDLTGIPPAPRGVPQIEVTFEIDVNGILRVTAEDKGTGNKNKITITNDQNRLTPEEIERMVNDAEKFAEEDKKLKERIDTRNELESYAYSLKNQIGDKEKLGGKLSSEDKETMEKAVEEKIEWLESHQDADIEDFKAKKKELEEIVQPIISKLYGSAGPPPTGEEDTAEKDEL

[3] = target: T2, proteins of HEK293T cells transiently overexpressing caspase-6 (Homo sapiens, UniProt P11498)
T2 sequence (P11498 21-1178): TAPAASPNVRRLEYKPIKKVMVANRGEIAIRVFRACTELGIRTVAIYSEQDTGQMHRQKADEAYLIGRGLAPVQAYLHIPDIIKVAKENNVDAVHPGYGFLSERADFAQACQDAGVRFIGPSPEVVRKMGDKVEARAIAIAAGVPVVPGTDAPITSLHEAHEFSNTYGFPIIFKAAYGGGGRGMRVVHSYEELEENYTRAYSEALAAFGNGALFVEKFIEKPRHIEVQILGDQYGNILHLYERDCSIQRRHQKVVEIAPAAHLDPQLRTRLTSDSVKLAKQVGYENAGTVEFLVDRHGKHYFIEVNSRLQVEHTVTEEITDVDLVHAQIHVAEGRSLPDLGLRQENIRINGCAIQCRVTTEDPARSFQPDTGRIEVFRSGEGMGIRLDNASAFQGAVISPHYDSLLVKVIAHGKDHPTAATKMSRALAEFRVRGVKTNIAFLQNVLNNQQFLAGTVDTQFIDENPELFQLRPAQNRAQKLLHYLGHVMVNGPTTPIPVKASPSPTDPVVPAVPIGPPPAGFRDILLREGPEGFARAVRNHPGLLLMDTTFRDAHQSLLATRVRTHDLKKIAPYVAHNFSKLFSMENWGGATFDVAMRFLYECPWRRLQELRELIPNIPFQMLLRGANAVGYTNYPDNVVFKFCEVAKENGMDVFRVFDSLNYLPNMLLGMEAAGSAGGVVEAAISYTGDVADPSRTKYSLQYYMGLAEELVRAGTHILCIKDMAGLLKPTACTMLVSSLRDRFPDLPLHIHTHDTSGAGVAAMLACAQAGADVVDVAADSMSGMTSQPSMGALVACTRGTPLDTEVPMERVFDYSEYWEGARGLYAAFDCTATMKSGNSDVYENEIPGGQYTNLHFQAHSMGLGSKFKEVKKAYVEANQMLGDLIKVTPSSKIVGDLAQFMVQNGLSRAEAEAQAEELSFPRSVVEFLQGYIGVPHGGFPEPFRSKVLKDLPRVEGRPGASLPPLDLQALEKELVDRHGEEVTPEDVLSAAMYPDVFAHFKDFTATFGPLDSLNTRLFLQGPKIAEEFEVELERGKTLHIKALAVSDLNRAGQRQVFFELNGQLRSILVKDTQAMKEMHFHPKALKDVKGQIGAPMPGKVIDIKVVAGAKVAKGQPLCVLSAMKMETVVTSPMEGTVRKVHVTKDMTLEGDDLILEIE

[4] = target: proteins of HEK293T cells transiently overexpressing caspase-6 (Homo sapiens, UniProt P42704); conditions: exp_ref Probe; protein LRPPRC (P42704); analysis C6
[5] = target: T3, proteins of HEK293T cells transiently overexpressing caspase-6 (Homo sapiens, UniProt P50990); conditions: protein CCT8 (P50990)
T3 sequence (P50990 1-548): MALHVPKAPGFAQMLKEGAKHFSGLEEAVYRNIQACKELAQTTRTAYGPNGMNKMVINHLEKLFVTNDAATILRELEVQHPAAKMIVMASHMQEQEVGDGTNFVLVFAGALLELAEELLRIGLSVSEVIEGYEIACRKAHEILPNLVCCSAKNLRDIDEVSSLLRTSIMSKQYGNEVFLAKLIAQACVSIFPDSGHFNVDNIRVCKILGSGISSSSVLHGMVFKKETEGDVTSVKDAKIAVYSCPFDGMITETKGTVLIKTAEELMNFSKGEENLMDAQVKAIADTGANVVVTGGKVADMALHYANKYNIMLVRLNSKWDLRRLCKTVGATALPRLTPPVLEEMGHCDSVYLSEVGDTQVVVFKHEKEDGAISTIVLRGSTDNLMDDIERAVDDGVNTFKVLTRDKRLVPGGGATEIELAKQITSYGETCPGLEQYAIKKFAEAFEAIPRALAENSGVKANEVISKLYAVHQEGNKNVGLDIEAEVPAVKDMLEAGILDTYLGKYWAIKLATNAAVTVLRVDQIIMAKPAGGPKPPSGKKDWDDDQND

[6] = target: T4, proteins of HEK293T cells transiently overexpressing caspase-6 (Homo sapiens, UniProt P55212); conditions: for enrich.exp.med: exp_ref Probe
T4 sequence (P55212 24-293): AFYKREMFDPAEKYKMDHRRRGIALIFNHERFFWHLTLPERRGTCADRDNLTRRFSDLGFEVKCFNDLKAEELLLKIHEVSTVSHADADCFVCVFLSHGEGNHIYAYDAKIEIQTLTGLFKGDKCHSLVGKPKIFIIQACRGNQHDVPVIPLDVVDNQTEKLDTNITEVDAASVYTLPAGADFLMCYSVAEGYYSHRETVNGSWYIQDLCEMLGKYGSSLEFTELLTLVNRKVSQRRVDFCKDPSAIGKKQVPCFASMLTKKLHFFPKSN

[7] = protein CASP6SMALL (P55212), Expt Probe, analysis C6

## C#CCOc1ccc([C@@H]2C[C@@H](C(=O)Nc3ccc(OC(F)(F)F)cc3)CN(S(=O)(=O)C=C)C2)cc1 (relative stereo) [13-t]
[1]; Probe, protein GOT2 P00505
  enrich.exp.med: -0.8861
[1]; protein GOT2 (P00505)
  enrich.exp.med.lin: 0.5411
  enrich.exp.med.log2: -0.8861
[2]; exp_ref Probe, analysis C6
  enrich.exp.med: 0.9475
[2]
  enrich.exp.med.lin: 1.929
  enrich.exp.med.log2: 0.9475
[3]; Probe, protein PC P11498
  enrich.exp.med: -2.146
[3]; protein PC (P11498)
  enrich.exp.med.lin: 0.2259
  enrich.exp.med.log2: -2.146
[4]
  enrich.exp.med: 0.2022
[5]; exp_ref Probe, analysis C6
  enrich.exp.med: 0.932
[5]
  enrich.exp.med.lin: 1.908
  enrich.exp.med.log2: 0.932
[6]; protein CASP6LARGE (P55212), analysis C6
  enrich.exp.med: 0.6468
[6]; protein CASP6LARGE (P55212)
  enrich.exp.med.lin: 1.566
  enrich.exp.med.log2: 0.6468
[6]; protein CASP6SMALL (P55212)
  enrich.exp.med.lin: 9.435
  enrich.exp.med.log2: 3.238
[6]; [7]
  enrich.exp.med.lin: 9.435
  enrich.exp.med.log2: 3.238
[6]; protein CASP6SMALL (P55212), analysis C6
  enrich.exp.med: 3.238
